# According to US20150291625A1 (PFIZER INC., priority 2012, published 2015):
# Where “and” joins values, the source holds several entries; their conditions need not be identical. Identical values can stand only once. Counter-ions that a name gives are not always drawn.
# Experiments:
# [1] = target: T1, D1 (Homo sapiens, UniProt P21728); test: D1 cAMP HTRF assay (HEK293T/hD1#1 stable cell line); format: cell-based; parameters: expressed in transfected cells
# Outline: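 Agonist-mode HTRF cAMP assay in HEK293T/hD1#1 stable cells resuspended in PBS with 0.5 μM IBMX; compound exposure 30 min at room temperature, then cAMP-D2 and anti-cAMP-cryptate detection for 1 h. EC50 from raw ratio data or from cAMP levels interpolated on a standard curve; percent effect versus controls.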
# [2] = target: T1, D1; test: Human D1 receptor binding assay ([3H]-SCH23390 competition); settings: Human D1 Receptor Binding, Ki (nM), Geometric mean of 2-4 determinations, a: >=5 determinations, d: single determination
# T1 sequence (P21728 whole entry): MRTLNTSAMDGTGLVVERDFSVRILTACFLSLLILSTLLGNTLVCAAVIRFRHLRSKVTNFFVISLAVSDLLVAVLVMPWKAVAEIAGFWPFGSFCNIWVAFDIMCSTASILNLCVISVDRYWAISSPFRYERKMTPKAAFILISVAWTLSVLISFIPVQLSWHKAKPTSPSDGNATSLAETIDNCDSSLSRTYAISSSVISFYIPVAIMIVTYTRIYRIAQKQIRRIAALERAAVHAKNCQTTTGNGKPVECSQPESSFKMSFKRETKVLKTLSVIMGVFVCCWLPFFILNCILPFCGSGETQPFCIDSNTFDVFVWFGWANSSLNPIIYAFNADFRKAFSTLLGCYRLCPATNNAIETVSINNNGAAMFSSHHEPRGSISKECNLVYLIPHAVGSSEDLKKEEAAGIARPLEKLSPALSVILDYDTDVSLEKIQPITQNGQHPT
Compound,EC50 [1],Ki [2]
"OCCCOc1cc(Oc2nccc3occc23)ccc1-c1cccc2nccn12 [Example 195, 3-[5-(furo[3,2-c]pyridin-4-yloxy)-2-(imidazo[1,2-a]pyridin-5-yl)phenoxy]propan-1-ol, trifluoroacetate salt]",565 nM,90.4 nM
"Cc1nccnc1-c1ccc(Oc2nccc3occc23)cc1Cl [Example 196, 4-[3-chloro-4-(3-methylpyrazin-2-yl)phenoxy]furo[3,2-c]pyridine]",1400 nM,91.7 nM
"c1cc(-c2ccc(Oc3nccc4occc34)cc2)n2ccnc2c1 [Example 197, 4-[4-(imidazo[1,2-a]pyridin-5-yl)phenoxy]furo[3,2-c]pyridine]",801 nM and 1090 nM,97 nM
"Cc1cc(Oc2nccc3occc23)ccc1-c1c(C)ncnc1N1CCN(C)C(=O)C1 [Example 198, 4-{5-[4-(furo[3,2-c]pyridin-4-yloxy)-2-methylphenyl]-6-methylpyrimidin-4-yl}-1-methylpiperazin-2-one, formate salt]",1140 nM,97 nM
"CCc1noc(COc2cc(Oc3nccc4occc34)ccc2-c2nccnc2C)n1 [Example 199, 4-{3-[(3-ethyl-1,2,4-oxadiazol-5-yl)methoxy]-4-(3-methylpyrazin-2-yl)phenoxy}furo[3,2-c]pyridine, formate salt]",782 nM,104 nM
"Cc1cc(Oc2nccc3occc23)ccc1-c1cccc2cnn(C)c12 [Example 200, 4-[3-methyl-4-(1-methyl-1H-indazol-7-yl)phenoxy]furo[3,2-c]pyridine]",1240 nM,111 nM
"CC(C)NC(=O)COc1cc(Oc2nccc3occc23)ccc1-c1cccc2nccn12 [Example 201, 2-[5-(furo[3,2-c]pyridin-4-yloxy)-2-(imidazo[1,2-a]pyridin-5-yl)phenoxy]-N-(propan-2-yl)acetamide, trifluoroacetate salt]",889 nM,113 nM
"CO[C@H]1CCN(c2ncnc(C)c2-c2ccc(Oc3nccc4occc34)cc2C)C1 [Example 202, 4-(4-{4-[(3S)-3-methoxypyrrolidin-1-yl]-6-methylpyrimidin-5-yl}-3-methylphenoxy)furo[3,2-c]pyridine, trifluoroacetate salt]",1290 nM,114 nM
"Cc1cc(Oc2nccc3occc23)ccc1-c1c(C)ncnc1N1CC(O)C1 [Example 203, 1-{5-[4-(furo[3,2-c]pyridin-4-yloxy)-2-methylphenyl]-6-methylpyrimidin-4-yl}azetidin-3-ol, formate salt]",799 nM,118 nM
"Cn1nccc1-c1ccc(Oc2nccc3occc23)cc1C(F)(F)F [Example 204, 4-[4-(1-methyl-1H-pyrazol-5-yl)-3-(trifluoromethyl)phenoxy]furo[3,2-c]pyridine]",1170 nM and 627 nM,130 nM
"Cc1ncccc1-c1ccc(Oc2nccc3occc23)cc1OC1CCOCC1 [Example 205, 4-[4-(2-methylpyridin-3-yl)-3-(tetrahydro-2H-pyran-4-yloxy)phenoxy]furo[3,2-c]pyridine, formate salt]",4630 nM and 3570 nM,148 nM
"COc1ncnc(C)c1-c1ccc(Oc2nccc3occc23)cc1C [Example 206, 4-[4-(4-methoxy-6-methylpyrimidin-5-yl)-3-methylphenoxy]furo[3,2-c]pyridine]",768 nM and 1250 nM,160 nM
"Cc1cc(Oc2nccc3occc23)ccc1-c1c(C)nc(C#N)c2nccn12 [Example 207, 5-[4-(furo[3,2-c]pyridin-4-yloxy)-2-methylphenyl]-6-methylimidazo[1,2-a]pyrazine-8-carbonitrile]",796 nM,161 nM
"COc1cccc2c(-c3ccc(Oc4nccc5occc45)cc3)ncnc12 [Example 208, 4-[4-(furo[3,2-c]pyridin-4-yloxy)phenyl]-8-methoxyquinazoline]",1550 nM,170 nM

# Second part, the compound after the results:
EC50 [1],Ki [2],Compound
475 nM,41.4 nM,"Cc1cc(Oc2nccc3occc23)ccc1-c1c(C)ncnc1N1Cc2cncnc2C1 [Example 175, 6-{5-[4-(furo[3,2-c]pyridin-4-yloxy)-2-methylphenyl]-6-methylpyrimidin-4-yl}-6,7-dihydro-5H-pyrrolo[3,4-d]pyrimidine, formate salt]"
780 nM,44.2 nM,"Cc1cc(Oc2nccc3occc23)ccc1-c1c(C)ccnc1C#N [Example 176, 3-[4-(furo[3,2-c]pyridin-4-yloxy)-2-methylphenyl]-4-methylpyridine-2-carbonitrile]"
2550 nM,46.4 nM,"Cc1cc(Oc2nccc3occc23)ccc1-c1nc(=O)[nH]nc1C [Example 177, 5-[4-(furo[3,2-c]pyridin-4-yloxy)-2-methylphenyl]-6-methyl-1,2,4-triazin-3(2H)-one]"
1160 nM,46.4 nM,"Cc1cc(Oc2nccc3occc23)ccc1-c1c(C)ncnc1N1CCCC1 [Example 178, 4-{3-methyl-4-[4-methyl-6-(pyrrolidin-1-yl)pyrimidin-5-yl]phenoxy}furo[3,2-c]pyridine, trifluoroacetate salt]"
921 nM,47.2 nM,"Cc1cc(Oc2nccc3occc23)ccc1-c1c(C)ncnc1N1CCC(CO)C1 (centres unmarked) [Example 179, (1-{5-[4-(furo[3,2-c]pyridin-4-yloxy)-2-methylphenyl]-6-methylpyrimidin-4-yl}pyrrolidin-3-yl)methanol, formate salt]"
812 nM,52.9 nM,"Cc1cc(Oc2nccc3occc23)ccc1-c1c(C)ncnc1N1CCC[C@H]1CO [Example 180, [(2S)-1-{5-[4-(furo[3,2-c]pyridin-4-yloxy)-2-methylphenyl]-6-methylpyrimidin-4-yl}pyrrolidin-2-yl]methanol, formate salt]"
803 nM,53.1 nM,"COc1cc(Oc2nccc3occc23)ccc1-c1cccnc1C [Example 181, 4-[3-methoxy-4-(2-methylpyridin-3-yl)phenoxy]furo[3,2-c]pyridine]"
641 nM,58 nM,"CCCc1noc(COc2cc(Oc3nccc4occc34)ccc2-c2nccnc2C)n1 [Example 182, 4-{4-(3-methylpyrazin-2-yl)-3-[(3-propyl-1,2,4-oxadiazol-5-yl)methoxy]phenoxy}furo[3,2-c]pyridine, formate salt]"
1400 nM,62.4 nM,"Cc1cc(Oc2nccc3occc23)ccc1-c1c(C)ncnc1N1Cc2cccnc2C1 [Example 183, 4-{4-[4-(5,7-dihydro-6H-pyrrolo[3,4-b]pyridin-6-yl)-6-methylpyrimidin-5-yl]-3-methylphenoxy}furo[3,2-c]pyridine, formate salt]"
881 nM,63.3 nM,"Cc1ncccc1-c1ccc(Oc2nccc3occc23)cc1 [Example 184, 4-[4-(2-methylpyridin-3-yl)phenoxy]furo[3,2-c]pyridine]"
1160 nM,64.2 nM,"Cc1cc(Oc2nccc3occc23)ccc1-c1c(C)ncnc1N1CC[C@@H](F)C1 [Example 185, 4-(4-{4-[(3R)-3-fluoropyrrolidin-1-yl]-6-methylpyrimidin-5-yl}-3-methylphenoxy)furo[3,2-c]pyridine, trifluoroacetate salt]"
1020 nM,64.6 nM,"Cc1noc(C)c1COc1cc(Oc2nccc3occc23)ccc1-c1cccc2nccn12 [Example 186, 4-{3-[(3,5-dimethyl-1,2-oxazol-4-yl)methoxy]-4-(imidazo[1,2-a]pyridin-5-yl)phenoxy}furo[3,2-c]pyridine, trifluoroacetate salt]"
984 nM,65.7 nM,"Cc1cc(Oc2nccc3occc23)ccc1-c1c(C)ncnc1N1CCCC1CO (centres unmarked) [Example 187, (1-{5-[4-(furo[3,2-c]pyridin-4-yloxy)-2-methylphenyl]-6-methylpyrimidin-4-yl}pyrrolidin-2-yl)methanol, trifluoroacetate salt]"
464 nM and 447 nM,72.5 nM,"Cc1nccnc1-c1ccc(Oc2nccc3occc23)cc1OCc1nc(C2CC2)no1 [Example 188, 4-{3-[(3-cyclopropyl-1,2,4-oxadiazol-5-yl)methoxy]-4-(3-methylpyrazin-2-yl)phenoxy}furo[3,2-c]pyridine, formate salt]"
308 nM,77.6 nM,"Cc1cc(Oc2nccc3occc23)ccc1-c1cncc2nccn12 [Example 189, 5-[4-(furo[3,2-c]pyridin-4-yloxy)-2-methylphenyl]imidazo[1,2-a]pyrazine, trifluoroacetate salt]"
2650 nM,79.3 nM,"COCCOc1cc(Oc2nccc3occc23)ccc1-c1c(C)ncnc1C [Example 190, 4-[4-(4,6-dimethylpyrimidin-5-yl)-3-(2-methoxyethoxy)phenoxy]furo[3,2-c]pyridine]"
1120 nM,85.8 nM,"COc1cc(Oc2nccc3occc23)ccc1-c1ccc(N)nc1C [Example 191, 5-[4-(furo[3,2-c]pyridin-4-yloxy)-2-methoxyphenyl]-6-methylpyridin-2-amine, formate salt]"
737 nM and 1500 nM,86.4 nM,"CCOc1ncnc(C)c1-c1ccc(Oc2nccc3occc23)cc1F [Example 192, 4-[4-(4-ethoxy-6-methylpyrimidin-5-yl)-3-fluorophenoxy]furo[3,2-c]pyridine]"
944 nM,87.5 nM,"Cc1ncc(N)nc1-c1ccc(Oc2nccc3occc23)cc1Cl [Example 193, 6-[2-chloro-4-(furo[3,2-c]pyridin-4-yloxy)phenyl]-5-methylpyrazin-2-amine]"
1680 nM and 1330 nM,88.5 nM,"Cc1ncccc1-c1ccc(Oc2nccc3occc23)cc1OCCc1cnoc1 [Example 194, 4-{4-(2-methylpyridin-3-yl)-3-[2-(1,2-oxazol-4-yl)ethoxy]phenoxy}furo[3,2-c]pyridine, formate salt]"
